# Results as given in ChEMBL document CHEMBL1129913, “Synthesis and cytotoxicity of novel artemisinin analogs” (Bioorg Med Chem Lett, 1997).
# Columns and labels:
# [1] = test system: KB; experiment: Compound was tested for in vitro cytotoxicity against KB (human epidermoid carcinoma) cell line; format: functional, cell-based
# [2] = test system: P388; experiment: Compound was tested for in vitro cytotoxicity against P388 (murine lymphocytic leukemia) cell line; format: functional, cell-based; settings: Mus musculus
# [3] = test system: SK-OV-3; experiment: Compound was tested for in vitro cytotoxicity against SK-OV-3 (human ovary carcinoma) cell line; format: functional, cell-based; settings: SK-OV-3, Female gonad
# [4] = test system: Vero; experiment: Compound was tested for in vitro cytotoxicity against VERO (African green monkey kidney) cell line; format: functional, cell-based; settings: Chlorocebus sabaeus
# [5] = test system: SK-OV-3; experiment: Compound was tested for in vitro cytotoxicity against SK-OV-3 (human ovary carcinoma) cell line;No activity; format: functional, cell-based, Female gonad
# [6] = test system: P388; experiment: Compound was tested for in vitro cytotoxicity against P388 (murine lymphocytic leukemia) cell line;No activity; format: functional, cell-based, Mus musculus
# [7] = test system: SK-OV-3; experiment: Compound was tested for in vitro cytotoxicity against SK-OV-3 (human ovary carcinoma) cell line; No activity; format: functional, cell-based, Female gonad
Structure (SMILES),IC50 [1] [mg/L],IC50 [2] [mg/L],IC50 [3] [mg/L],IC50 [4] [mg/L],IC50 [5],IC50 [6],IC50 [7]
CC[C@H]1O[C@@H]2O[C@@]3(C)CC[C@H]4[C@H](C)CC[C@@H]([C@H]1C)[C@@]24OO3,20,5.5,33,30,,,
"C[C@@H]1CCC2[C@@H](C)CCO[C@@H]3OC4(C)CCC1C23OO4 (single isomer, unassigned)",22,8,,30,Not Active,,
"CCCC[C@H]1O[C@@H]2OC3(C)CC[C@H]4[C@H](C)CC[C@@H]([C@H]1C)[C@@]24OO3 (single isomer, unassigned)",4.5,40,40,15,,,
"C[C@H]1[C@@H](CCCC(=O)O)O[C@@H]2OC3(C)CCC4[C@H](C)CC[C@@H]1[C@]42OO3 (single isomer, unassigned)",32,,,30,Not Active,Not Active,
"CCO[C@H]1O[C@@H]2OC3(C)CCC4[C@H](C)CC[C@@H]([C@H]1C)[C@]42OO3 (single isomer, unassigned)",15,,,28,Not Active,Not Active,
"C[C@H]1[C@@H](Cc2ccccc2)O[C@@H]2OC3(C)CCC4[C@H](C)CC[C@@H]1[C@]42OO3 (single isomer, unassigned)",13,,32,15,,Not Active,
"CCN(CC)Cc1ccc(C(=O)O[C@@H]2O[C@@H]3OC4(C)CCC5[C@H](C)CC[C@@H]([C@H]2C)[C@]53OO4)cc1 (single isomer, unassigned)",3,,,15,Not Active,Not Active,
"C[C@@H]1CC[C@H]2[C@@H](C)CO[C@@H]3OC4(C)CC[C@@H]1[C@]32OO4 (single isomer, unassigned) [DEOXOARTEMISININ]",24,,40,30,,Not Active,
C[C@@H]1CC[C@H]2[C@@H](C)C(=O)O[C@@H]3O[C@@]4(C)CC[C@@H]1[C@]32OO4 [ARTEMISININ],16,28,,31,,,Not Active
